Drawing on ChEMBL document CHEMBL1221220, “Transport and signaling via the amino acid binding site of the yeast Gap1 amino acid transceptor” (Nat Chem Biol, 2009), this text covers Activity and inhibition for one molecule.

Substitutions are numbered along the chain they refer to. The source made the active and inactive calls. No cut-off for these calls is given here.

For assay [1], the system named is T1, General amino-acid permease GAP1 (Saccharomyces cerevisiae), P19145 [S398C].
T1 sequence (whole entry): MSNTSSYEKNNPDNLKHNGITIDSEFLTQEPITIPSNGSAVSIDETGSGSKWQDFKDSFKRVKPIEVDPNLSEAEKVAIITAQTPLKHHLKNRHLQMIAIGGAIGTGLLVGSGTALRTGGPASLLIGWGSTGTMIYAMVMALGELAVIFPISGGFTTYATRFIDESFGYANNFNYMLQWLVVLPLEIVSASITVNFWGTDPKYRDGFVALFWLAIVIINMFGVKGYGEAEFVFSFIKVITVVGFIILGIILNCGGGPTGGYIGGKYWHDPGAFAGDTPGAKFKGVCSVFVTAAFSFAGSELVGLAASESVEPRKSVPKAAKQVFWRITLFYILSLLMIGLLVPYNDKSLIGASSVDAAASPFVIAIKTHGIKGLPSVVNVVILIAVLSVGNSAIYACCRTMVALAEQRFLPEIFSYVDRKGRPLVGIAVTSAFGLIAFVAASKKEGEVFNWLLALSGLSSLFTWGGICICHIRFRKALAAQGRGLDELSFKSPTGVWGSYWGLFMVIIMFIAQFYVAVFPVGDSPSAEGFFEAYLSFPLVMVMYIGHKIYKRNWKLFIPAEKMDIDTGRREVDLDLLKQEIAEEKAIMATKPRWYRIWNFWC
Kind of assay: Induction of yeast Gap1 S398C mutant-mediated amino acid uptake at 2 mM in presence of 10 mM MTSEA treated before compound addition.

The subject of assay [2] is T2, General amino-acid permease GAP1 (Saccharomyces cerevisiae), P19145 [A405C].
T2 sequence (whole entry): T1 sequence (whole entry) with C398S, A405C
In words: Induction of yeast Gap1 A405C mutant-mediated trehalose activation at 10 mM.

Assay [3] relates to T3, General amino-acid permease GAP1 (Saccharomyces cerevisiae), P19145 [N391C].
T3 sequence (whole entry): T1 sequence (whole entry) with N391C, C398S
In words: Induction of yeast Gap1 N391C mutant-mediated amino acid uptake at 2 mM in presence of 10 mM MTSEA treated before compound addition.

The target of assay [4] is T4, General amino-acid permease GAP1 (Saccharomyces cerevisiae) (UniProt P19145).
T4 sequence (whole entry): T1 sequence (whole entry) with C398S
Kind of assay: Induction of nitrogen-starved wild type sigma1278b yeast Gap1-mediated trehalase activation at 2 mM in presence of 10 mM MTSEA treated before compound addition.

For assay [5], the system named is General amino-acid permease GAP1 (Saccharomyces cerevisiae), P19145 [Y395C]. Kind of assay: Inhibition of yeast Gap1 Y395C mutant-mediated amino acid uptake at 10 mM.
Sequence of General amino-acid permease GAP1 (Saccharomyces cerevisiae), P19145 [Y395C] (P19145 whole entry Y395C): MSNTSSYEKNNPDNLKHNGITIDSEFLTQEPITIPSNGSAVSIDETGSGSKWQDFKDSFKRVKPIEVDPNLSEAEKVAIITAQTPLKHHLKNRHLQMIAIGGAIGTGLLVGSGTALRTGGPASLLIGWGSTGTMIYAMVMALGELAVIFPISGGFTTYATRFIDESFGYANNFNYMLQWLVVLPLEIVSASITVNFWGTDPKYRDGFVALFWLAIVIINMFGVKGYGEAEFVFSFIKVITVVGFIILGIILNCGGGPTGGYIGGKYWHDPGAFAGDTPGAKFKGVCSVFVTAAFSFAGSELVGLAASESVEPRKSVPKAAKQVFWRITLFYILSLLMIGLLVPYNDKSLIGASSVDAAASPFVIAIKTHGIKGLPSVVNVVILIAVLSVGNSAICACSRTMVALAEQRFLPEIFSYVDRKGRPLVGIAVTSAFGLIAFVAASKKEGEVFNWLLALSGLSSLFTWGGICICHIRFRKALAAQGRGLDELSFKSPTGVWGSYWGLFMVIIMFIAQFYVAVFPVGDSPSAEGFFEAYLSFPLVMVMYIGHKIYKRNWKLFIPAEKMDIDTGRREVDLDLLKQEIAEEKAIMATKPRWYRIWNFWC

As for `NC(=O)NCCC[C@H](N)C(=O)O`, the outcome in assay [1] and in assay [3] was Active. In assay [2], the outcome was inactive. Also, the inhibition result in assay [4] and in assay [5] was “Active” throughout.
